# Active and inactive are the calls of the source.
# Key:
# [1] = target: 72 kDa type IV collagenase (Homo sapiens, UniProt P08253); assay: Dose Response validation of uHTS RPN11 inhibitor hits using a MMP-2 Fluorescence assay.; format: functional
# [2] = target: Prothrombin (Bos taurus, UniProt P00735); assay: thrombin inhibition, dose response, biochemical, fluorescence polarization, uHTS hits (AID 602369); format: functional
# [3] = target: 26S proteasome non-ATPase regulatory subunit 14 (Homo sapiens, UniProt O00487); assay: inhibition of proteasome subunit RPN11 – biochemical, fluorescence polarization, uHTS hits, confirmation (AID 602368); format: functional
# [4] = Shn3 3'UTR reporter inhibitors, dose response, cell-based, Clone20 osteoblasts, firefly luciferase, cherry-picked (AID 624132); format: functional;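 also: firefly luciferase luminescence from reporter carrying the Shn3 3'UTR in osteoblasts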
# [5] = target: Protein Wnt-3a (Mus musculus, UniProt P27467); assay: Wnt3a-driven reporter signaling inhibition, dose response, selectivity assay for Gli-SUFU antagonist project, Wnt-LIGHT cells, luminescence (AID 651570); format: functional; details: read-out: IC50_Mean;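 also: Wnt-LIGHT reporter cells stimulated with conditioned medium from Wnt3a-producing cells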
# [6] = control 3'UTR Renilla luciferase suppression, dose response, counter-screen for Shn3 inhibitor project, cell-based, Clone20-Shn3RL, cherry-picked (AID 624133); format: functional
# [7] = target: T1, Sentrin-specific protease 8 (Homo sapiens, UniProt Q96LD8); format: functional;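 also: luminescence read-out of SENP8 inhibition, dose-response confirmation following an ultra-high-throughput screen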
# T1 sequence (Q96LD8 whole entry): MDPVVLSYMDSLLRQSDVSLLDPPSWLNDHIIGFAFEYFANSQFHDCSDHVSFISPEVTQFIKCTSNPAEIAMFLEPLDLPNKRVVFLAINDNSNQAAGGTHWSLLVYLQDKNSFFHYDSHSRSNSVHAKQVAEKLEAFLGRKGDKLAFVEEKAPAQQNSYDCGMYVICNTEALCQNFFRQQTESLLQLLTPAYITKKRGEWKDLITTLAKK
# [8] = target: T2, Caspase-3 (Homo sapiens, UniProt P42574); format: functional;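 also: Dose-response selectivity test against caspase-3 for candidate inhibitors of sentrin-specific proteases (SENPs)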
# T2 sequence (P42574 whole entry): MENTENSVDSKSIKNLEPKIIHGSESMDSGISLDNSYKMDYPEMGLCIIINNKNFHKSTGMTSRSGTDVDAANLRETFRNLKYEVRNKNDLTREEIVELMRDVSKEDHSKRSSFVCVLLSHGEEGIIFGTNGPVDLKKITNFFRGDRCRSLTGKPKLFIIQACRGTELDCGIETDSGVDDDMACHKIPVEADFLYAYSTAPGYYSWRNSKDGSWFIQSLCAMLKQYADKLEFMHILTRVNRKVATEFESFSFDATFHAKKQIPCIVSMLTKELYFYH
# [9] = target: T3, Sentrin-specific protease 7 (Homo sapiens, UniProt Q9BQF6); format: functional;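 also: Luminescence-based dose-response confirmation of ultra-high-throughput screening hits, measuring inhibition of SENP7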
# T3 sequence (Q9BQF6 whole entry): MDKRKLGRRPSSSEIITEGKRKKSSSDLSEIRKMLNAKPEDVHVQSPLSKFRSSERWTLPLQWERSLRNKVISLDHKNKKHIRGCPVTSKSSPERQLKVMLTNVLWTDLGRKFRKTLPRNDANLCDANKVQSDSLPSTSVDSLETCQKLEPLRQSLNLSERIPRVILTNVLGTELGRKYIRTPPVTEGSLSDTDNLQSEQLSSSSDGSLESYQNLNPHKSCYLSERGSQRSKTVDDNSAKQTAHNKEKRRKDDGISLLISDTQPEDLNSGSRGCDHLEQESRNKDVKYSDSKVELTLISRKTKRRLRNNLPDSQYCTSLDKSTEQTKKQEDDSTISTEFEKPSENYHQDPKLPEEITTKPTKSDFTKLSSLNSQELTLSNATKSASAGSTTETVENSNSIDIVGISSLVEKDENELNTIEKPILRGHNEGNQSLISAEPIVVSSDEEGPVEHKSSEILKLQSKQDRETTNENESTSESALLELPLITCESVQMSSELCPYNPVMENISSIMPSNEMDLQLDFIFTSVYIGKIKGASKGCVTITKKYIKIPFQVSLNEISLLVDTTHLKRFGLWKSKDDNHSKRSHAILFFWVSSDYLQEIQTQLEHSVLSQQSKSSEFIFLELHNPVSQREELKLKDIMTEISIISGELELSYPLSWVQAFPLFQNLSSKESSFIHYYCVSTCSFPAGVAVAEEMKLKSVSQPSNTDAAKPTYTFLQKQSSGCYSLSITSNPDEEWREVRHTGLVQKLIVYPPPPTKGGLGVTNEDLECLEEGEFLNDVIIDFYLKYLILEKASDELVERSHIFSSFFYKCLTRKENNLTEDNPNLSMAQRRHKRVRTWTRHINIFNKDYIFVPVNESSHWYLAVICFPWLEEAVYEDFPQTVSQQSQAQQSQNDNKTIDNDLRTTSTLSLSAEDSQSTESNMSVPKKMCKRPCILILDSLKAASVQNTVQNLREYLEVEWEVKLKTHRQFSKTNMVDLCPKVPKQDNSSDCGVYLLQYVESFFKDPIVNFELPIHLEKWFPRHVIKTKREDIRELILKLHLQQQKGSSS
# [10] = target: T4, Sentrin-specific protease 6 (Homo sapiens, UniProt Q9GZR1); format: functional;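 also: Luminescence-based dose-response confirmatory assay of SENP6 inhibition, following up an ultra-high-throughput screen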
# T4 sequence (Q9GZR1 whole entry): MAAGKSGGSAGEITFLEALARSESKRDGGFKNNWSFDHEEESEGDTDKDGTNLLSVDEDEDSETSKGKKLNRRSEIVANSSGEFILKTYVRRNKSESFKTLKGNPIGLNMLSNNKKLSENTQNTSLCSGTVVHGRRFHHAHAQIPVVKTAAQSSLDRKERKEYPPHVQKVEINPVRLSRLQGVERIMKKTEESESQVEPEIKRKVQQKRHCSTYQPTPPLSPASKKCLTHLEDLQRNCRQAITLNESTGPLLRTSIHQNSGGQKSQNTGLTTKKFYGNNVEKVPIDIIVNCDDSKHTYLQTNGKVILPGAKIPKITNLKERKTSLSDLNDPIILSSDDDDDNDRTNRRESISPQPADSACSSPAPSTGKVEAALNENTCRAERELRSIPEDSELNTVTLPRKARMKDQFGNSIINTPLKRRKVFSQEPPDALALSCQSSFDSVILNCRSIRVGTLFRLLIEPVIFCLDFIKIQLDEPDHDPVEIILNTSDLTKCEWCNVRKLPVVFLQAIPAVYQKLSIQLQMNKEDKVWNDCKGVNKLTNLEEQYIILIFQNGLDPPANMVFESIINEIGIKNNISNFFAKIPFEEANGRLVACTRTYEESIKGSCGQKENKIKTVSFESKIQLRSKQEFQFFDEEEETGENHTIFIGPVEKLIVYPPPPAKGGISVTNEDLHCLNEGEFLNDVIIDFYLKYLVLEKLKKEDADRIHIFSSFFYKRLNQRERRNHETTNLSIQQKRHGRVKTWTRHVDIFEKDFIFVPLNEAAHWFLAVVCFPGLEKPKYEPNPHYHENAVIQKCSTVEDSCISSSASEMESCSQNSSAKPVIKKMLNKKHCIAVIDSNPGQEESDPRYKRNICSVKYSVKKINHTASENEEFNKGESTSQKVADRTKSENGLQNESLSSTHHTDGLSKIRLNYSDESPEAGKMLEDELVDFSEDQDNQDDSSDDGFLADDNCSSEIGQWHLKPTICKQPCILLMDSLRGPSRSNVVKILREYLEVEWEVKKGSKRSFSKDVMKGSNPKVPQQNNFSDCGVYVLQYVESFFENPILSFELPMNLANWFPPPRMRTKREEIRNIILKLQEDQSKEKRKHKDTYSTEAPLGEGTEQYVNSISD
# [11] = target: T5, Probable nicotinate-nucleotide adenylyltransferase (Staphylococcus aureus (strain N315), UniProt P65502); format: functional, Staphylococcus aureus subsp. aureus N315; details: read-out: IC50_Mean;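 as to IC50 Mean: confirmatory dose-response retesting of NadD inhibitor hits first found in an ultra-high-throughput screen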
# [12] = target: Induced myeloid leukemia cell differentiation protein Mcl-1 (Homo sapiens, UniProt Q07820); format: functional
# [13] = target: T5, Probable nicotinate-nucleotide adenylyltransferase; format: functional, Staphylococcus aureus subsp. aureus N315
# [14] = target: T6, Beta-lactamase (Pseudomonas aeruginosa, UniProt Q79MP6); assay: […] counterscreen for selective VIM-2 inhibitors: dose response biochemical high throughput screening assay to identify inhibitors of IMP-1 metallo-beta-lactamase.
# [15] = target: T6, Beta-lactamase; assay: IMP-1 metallo-beta-lactamase inhibitors, dose response, selectivity assay for VIM-2 inhibitor project, biochemical, epi-absorbance (AID 1920)
# [16] = target: Beta-lactamase (Salmonella choleraesuis (strain SC-B67), UniProt Q5J463); assay: Epi-absorbance-based counterscreen for selective VIM-2 inhibitors: dose response biochemical high throughput screening assay to identify inhibitors of TEM-1 serine-beta-lactamase.
# [17] = target: Cytochrome P450 3A4 (Homo sapiens, UniProt P08684);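 also: CYP3A4 tested as one member of a cytochrome P450 panel screen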
# [18] = target: Cytochrome P450 2C9 (Homo sapiens, UniProt P11712)
# [19] = target: Cytochrome P450 2C19 (Homo sapiens, UniProt P33261); assay: Cytochrome panel assay with activity outcomes. Panel member name: p450-cyp2c19 Compounds with AC50 equal or less than 10 uM are considered active; format: functional; details: read-out: AC50
# [20] = HEp-2 cell cytotoxicity, dose response, cytotoxicity control for RSV inhibitor project, HTS (AID 2410); format: functional; details: human respiratory syncytial virus
# [21] = target: T7, Adenosylmethionine-8-amino-7-oxononanoate aminotransferase (Mycobacterium tuberculosis, UniProt P9WQ81); assay: Mycobacterium tuberculosis BioA enzyme inhibitor Measured in Biochemical System Using Plate Reader - 2163-02_Inhibitor_Dose_CherryPick_Activity.; format: functional, Mycobacterium tuberculosis UT205
# T7 sequence (P9WQ81 whole entry): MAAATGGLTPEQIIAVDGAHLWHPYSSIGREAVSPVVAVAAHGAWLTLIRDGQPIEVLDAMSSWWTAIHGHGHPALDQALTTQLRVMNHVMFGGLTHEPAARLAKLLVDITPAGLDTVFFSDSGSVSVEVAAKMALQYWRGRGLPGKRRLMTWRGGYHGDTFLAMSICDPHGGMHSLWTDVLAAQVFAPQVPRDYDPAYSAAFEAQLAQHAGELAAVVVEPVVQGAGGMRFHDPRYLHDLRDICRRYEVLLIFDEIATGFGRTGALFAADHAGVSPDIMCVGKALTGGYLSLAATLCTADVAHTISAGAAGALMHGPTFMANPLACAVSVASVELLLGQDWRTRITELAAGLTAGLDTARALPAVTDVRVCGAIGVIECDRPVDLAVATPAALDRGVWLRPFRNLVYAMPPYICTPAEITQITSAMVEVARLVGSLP
# [22] = HepG2 cell cytotoxicity, dose response, cytotoxicity control for Shn3 inhibitor project, CellTiter-Glo, cherry-picked (AID 624134); format: functional, cell-based
# Chain of Protein Wnt-3a (P27467 whole entry): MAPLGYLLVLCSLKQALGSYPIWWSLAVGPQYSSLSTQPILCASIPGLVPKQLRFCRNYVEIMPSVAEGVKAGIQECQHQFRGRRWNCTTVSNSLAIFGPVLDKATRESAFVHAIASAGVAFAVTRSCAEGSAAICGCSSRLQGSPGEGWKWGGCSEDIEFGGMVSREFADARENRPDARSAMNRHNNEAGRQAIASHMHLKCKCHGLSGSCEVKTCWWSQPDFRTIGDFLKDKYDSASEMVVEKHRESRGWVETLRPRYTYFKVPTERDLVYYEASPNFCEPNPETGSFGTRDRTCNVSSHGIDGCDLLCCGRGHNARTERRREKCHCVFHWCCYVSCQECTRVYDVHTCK
# T5 sequence (P65502 whole entry): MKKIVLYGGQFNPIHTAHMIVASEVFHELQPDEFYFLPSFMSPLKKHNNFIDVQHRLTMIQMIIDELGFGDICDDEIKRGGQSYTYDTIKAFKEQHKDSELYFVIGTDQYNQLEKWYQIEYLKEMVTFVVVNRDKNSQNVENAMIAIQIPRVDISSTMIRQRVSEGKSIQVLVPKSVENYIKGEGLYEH
# Chain of 72 kDa type IV collagenase (P08253 whole entry): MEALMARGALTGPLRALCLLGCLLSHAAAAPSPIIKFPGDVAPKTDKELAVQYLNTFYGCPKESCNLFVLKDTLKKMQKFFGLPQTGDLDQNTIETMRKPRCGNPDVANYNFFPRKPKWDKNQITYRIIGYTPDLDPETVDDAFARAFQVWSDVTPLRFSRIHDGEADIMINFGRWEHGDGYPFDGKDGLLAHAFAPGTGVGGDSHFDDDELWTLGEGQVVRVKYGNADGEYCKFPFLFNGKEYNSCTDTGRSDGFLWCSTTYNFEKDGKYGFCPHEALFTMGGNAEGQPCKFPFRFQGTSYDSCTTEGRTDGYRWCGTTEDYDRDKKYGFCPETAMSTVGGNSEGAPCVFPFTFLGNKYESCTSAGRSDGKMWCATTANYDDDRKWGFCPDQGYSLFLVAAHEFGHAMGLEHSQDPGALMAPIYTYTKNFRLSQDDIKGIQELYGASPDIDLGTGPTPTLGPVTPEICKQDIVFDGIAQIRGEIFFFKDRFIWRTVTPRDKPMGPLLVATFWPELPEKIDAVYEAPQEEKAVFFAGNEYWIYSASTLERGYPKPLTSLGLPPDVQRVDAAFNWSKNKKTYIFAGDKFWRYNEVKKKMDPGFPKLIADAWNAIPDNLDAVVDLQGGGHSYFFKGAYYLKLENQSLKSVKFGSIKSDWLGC
# Chain of 26S proteasome non-ATPase regulatory subunit 14 (O00487 whole entry): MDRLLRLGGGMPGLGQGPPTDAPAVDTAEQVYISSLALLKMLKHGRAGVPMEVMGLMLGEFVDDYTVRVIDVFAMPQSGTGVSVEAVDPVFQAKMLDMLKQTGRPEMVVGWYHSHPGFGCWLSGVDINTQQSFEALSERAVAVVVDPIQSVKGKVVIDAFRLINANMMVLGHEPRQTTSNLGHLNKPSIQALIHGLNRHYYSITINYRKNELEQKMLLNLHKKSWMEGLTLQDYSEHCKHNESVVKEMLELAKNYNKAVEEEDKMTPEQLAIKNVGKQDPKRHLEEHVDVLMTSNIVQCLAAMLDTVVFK
# T6 sequence (Q79MP6 whole entry): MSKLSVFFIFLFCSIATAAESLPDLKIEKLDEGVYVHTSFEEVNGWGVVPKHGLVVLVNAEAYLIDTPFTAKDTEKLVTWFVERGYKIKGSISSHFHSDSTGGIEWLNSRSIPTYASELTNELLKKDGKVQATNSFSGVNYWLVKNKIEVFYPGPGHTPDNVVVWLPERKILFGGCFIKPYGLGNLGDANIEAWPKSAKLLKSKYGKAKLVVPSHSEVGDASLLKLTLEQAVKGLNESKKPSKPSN
# Chain of Beta-lactamase (Salmonella choleraesuis (strain SC-B67), UniProt Q5J463) (Q5J463 whole entry): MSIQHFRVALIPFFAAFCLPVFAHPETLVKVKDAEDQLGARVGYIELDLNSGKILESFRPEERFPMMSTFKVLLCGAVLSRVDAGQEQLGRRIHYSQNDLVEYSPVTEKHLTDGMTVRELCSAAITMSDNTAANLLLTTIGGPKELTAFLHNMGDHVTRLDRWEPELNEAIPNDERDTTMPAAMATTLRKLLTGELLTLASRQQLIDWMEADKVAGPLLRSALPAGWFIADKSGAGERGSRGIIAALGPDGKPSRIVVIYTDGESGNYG
# Chain of Cytochrome P450 2C19 (P33261 whole entry): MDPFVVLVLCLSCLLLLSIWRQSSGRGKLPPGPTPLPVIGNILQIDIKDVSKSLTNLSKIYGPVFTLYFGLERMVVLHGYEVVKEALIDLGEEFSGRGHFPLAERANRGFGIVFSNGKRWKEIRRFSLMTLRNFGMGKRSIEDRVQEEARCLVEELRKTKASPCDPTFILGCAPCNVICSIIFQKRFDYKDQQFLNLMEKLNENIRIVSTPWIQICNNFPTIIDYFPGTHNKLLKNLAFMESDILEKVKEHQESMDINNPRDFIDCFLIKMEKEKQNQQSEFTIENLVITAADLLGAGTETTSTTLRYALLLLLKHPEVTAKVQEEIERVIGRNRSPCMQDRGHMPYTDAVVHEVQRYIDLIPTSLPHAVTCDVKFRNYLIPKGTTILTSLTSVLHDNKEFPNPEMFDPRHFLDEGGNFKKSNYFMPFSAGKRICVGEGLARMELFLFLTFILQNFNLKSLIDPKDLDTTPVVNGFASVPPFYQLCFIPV
# Chain of Cytochrome P450 3A4 (P08684 whole entry): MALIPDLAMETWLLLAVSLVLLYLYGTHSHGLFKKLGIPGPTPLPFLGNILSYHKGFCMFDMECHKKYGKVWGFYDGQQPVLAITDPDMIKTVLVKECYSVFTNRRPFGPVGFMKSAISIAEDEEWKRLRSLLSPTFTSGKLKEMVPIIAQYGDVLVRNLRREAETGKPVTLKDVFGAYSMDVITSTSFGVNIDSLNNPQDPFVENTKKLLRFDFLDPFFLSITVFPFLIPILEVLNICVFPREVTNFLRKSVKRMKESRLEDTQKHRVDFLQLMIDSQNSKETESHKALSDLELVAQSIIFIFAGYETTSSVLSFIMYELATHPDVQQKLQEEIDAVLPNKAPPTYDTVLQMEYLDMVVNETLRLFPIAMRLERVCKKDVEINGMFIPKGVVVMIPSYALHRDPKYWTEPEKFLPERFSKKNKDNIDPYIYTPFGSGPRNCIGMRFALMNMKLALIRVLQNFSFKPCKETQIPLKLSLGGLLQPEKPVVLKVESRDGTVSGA
# Chain of Induced myeloid leukemia cell differentiation protein Mcl-1 (Q07820 whole entry): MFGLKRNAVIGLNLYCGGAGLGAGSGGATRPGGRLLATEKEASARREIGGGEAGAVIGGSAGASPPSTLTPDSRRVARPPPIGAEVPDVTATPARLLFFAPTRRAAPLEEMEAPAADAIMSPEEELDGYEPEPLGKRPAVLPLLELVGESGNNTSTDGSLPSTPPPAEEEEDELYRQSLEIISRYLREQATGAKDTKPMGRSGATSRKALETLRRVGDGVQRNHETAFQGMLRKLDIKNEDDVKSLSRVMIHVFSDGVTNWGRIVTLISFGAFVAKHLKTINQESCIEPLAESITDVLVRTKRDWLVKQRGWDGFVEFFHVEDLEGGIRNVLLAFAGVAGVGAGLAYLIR
# Chain of Cytochrome P450 2C9 (P11712 whole entry): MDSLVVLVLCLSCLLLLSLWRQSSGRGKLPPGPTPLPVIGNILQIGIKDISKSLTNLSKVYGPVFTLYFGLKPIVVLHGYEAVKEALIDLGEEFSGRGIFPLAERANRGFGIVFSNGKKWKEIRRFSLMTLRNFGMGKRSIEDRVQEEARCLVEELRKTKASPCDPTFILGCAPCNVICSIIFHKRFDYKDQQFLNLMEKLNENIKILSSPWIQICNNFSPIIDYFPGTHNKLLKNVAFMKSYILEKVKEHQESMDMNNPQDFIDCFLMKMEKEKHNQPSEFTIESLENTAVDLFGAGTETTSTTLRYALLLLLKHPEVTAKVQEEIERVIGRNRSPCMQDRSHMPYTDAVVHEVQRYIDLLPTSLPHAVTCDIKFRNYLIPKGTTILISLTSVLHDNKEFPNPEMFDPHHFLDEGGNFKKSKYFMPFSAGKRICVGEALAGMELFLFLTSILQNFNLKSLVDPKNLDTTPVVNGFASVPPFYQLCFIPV
compound,measurement,setting,value
CC1=CC2=NC(=O)/C(=C\c3c(C)[nH]c4ccc(C)cc34)C(=N)N2O1,IC50,[1],> 100 µM (inactive)
same,IC50,[2],32.1 µM (active)
same,IC50,[3],33.3 µM (active)
C=CCOc1nc2c(c(=O)n(C)c(=O)n2C)n1Cc1ccc(Cl)cc1Cl,AC50,[4],2.15 µM (active)
same,IC50,[5],29.7 µM (inactive)
same,AC50,[6],7.4 µM (active)
CCOC(=O)c1ccc(NC(=O)c2cc3ccccc3o2)cc1,IC50,[7],> 100 µM (inactive)
same,IC50,[8],23.7 µM (active)
same,IC50,[9],5.71 µM (active)
same,IC50,[10],7.74 µM (active)
COc1ccc(C2=NN(c3nc(-c4ccccc4)c(CC(=O)O)s3)C(c3ccco3)C2)cc1 (stereo not given),IC50,[11],18.5 µM (active)
same,IC50,[12],6.5 µM (active)
same,IC50,[13],8.39 µM (active)
CSC[C@H](NC(=O)COc1cc2c(c3oc(=O)c(C)c(C)c13)CCC(C)(C)O2)C(=O)O,IC50,[14],> 59.6 µM (inactive)
same,IC50,[15],> 59.6 µM (inactive)
same,IC50,[16],> 59.6 µM (inactive)
Cc1cc(/C=C2\SC(=S)NC2=O)c(C)n1C,IC50,[1],15.2 µM (active)
same,AC50,[17],25.1 µM (inconclusive)
same,IC50,[2],19.4 µM (active)
same,AC50,[18],1.26 µM (inconclusive)
same,IC50,[3],16.5 µM (active)
same,AC50,[19],39.8 µM (inconclusive)
CCOC(=O)c1c(NC(=O)COc2ncnc3ccccc23)sc(C(C)=O)c1C,IC50,[5],6.86 µM (active)
Cc1ccc([N+](=O)[O-])cc1S(=O)(=O)Nc1cccc(-c2ccc(N3CCCC3)nn2)c1,CC50,[20],23 µM (active)
same,IC50,[11],39.2 µM (active)
same,IC50,[13],17.7 µM (active)
S=c1[nH]nc(-c2ccccc2)n1CC1CCCO1 (stereo not given),IC50,[14],> 59.6 µM (inactive)
same,IC50,[15],> 59.6 µM (inactive)
same,IC50,[16],> 59.6 µM (inactive)
Cc1ccc(NC(=O)C(C)SCc2nc(O)c3c4c(sc3n2)CCCC4)nc1 (stereo not given),IC50,[1],> 100 µM (inactive)
same,IC50,[2],17.2 µM (active)
same,IC50,[3],21.9 µM (active)
O=C(c1ccc2c(=O)n(Cc3ccco3)c(=S)[nH]c2c1)N1CCN(Cc2ccccc2)CC1,IC50,[11],57.7 µM (active)
same,IC50,[13],23.5 µM (active)
Cc1cccc(C(=O)NC2CCN(CC(=O)Nc3ccccc3Cl)CC2)c1,AC50,[21],1.04 µM (active)
O=C(C[C@@H]1C[C@@H]2c3cc(NC(=O)c4cccnc4)ccc3O[C@@H]2[C@@H](CO)O1)NCc1cccc(F)c1,AC50,[21],5.98 µM (active)
O=C(Nc1ccc2c(c1)[C@H]1C[C@@H](CC(=O)N3CCc4ccccc4C3)O[C@H](CO)[C@H]1O2)c1cccnc1,AC50,[21],6.24 µM (active)
CCc1nc(N)nc(N)c1-c1ccc(N(C)Cc2ccccc2)c([N+](=O)[O-])c1,AC50,[4],< 0.26 µM (active)
same,IC50,[5],5.28 µM (active)
same,AC50,[22],< 0.26 µM (active)

# — ChEMBL document CHEMBL1201862, “PubChem BioAssay data set” (2004)
